Assay results reported in patent US7932277B2, “Peptide inhibitors of hepatitis C virus replication” (InterMune, Inc., priority 2007, dated 2011).
Like-named read-outs stand apart in the source and are kept apart here.

Legend:
[1] = test system: HCV sub-genomic replicon (1377/NS3-3') in HuH-7 hepatoma cells (GS4.3); experiment: Quantitation by ELISA of NPTII in the HCV sub-genomic replicon, GS4.3; type: cell-based, hepatitis C virus (HCV); settings: read-out: Replicon EC50
Procedure, shortened: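 GS4.3 cells (HuH-7 carrying HCV 1377/NS3-3′ replicon) treated 72 h at 37 °C with compound at 3-fold dilutions from 10 μM to 56 pM final, 1% DMSO, without G418. NPTII in lysates quantified by ELISA (450 nm). Signal expressed as percent of DMSO control; EC50 by 4-parameter fit.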

[2] = biological target: T1, NS3/NS4A-2 (full-length HCV NS3 protease complexed with NS4A-2) (Hepatitis C virus genotype 1a, UniProt P27958); experiment: NS3 inhibition assay (NS3-NS4 protease assay); type: biochemical
T1 construct: Recombinant E. coli or Baculovirus full-length NS3; host or cells: E. coli or baculovirus (insect cells)
T1 sequence (P27958 1027-1657, one chain of several): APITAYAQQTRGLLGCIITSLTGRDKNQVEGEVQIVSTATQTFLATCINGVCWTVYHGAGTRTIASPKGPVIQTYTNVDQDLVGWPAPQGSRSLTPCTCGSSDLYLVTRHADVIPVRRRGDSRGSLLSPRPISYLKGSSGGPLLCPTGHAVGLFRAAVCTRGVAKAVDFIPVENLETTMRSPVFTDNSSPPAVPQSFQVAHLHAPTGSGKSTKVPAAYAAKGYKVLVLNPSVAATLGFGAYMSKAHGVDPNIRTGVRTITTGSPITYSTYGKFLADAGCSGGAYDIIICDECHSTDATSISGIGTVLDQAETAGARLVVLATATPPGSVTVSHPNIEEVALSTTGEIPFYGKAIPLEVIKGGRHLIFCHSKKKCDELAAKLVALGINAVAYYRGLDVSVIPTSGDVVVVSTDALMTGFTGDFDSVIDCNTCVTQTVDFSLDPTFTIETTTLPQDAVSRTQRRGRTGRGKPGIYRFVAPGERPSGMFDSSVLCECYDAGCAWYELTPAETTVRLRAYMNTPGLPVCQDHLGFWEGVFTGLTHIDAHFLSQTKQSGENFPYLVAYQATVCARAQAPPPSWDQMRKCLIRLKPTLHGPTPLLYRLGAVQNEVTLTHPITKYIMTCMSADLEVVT
Procedure, shortened: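 Full-length NS3 (E. coli-expressed at 2 nM or baculovirus-expressed at 3 nM) precomplexed with excess NS4A-2 peptide and preincubated with compound (top concentration 50 μM) for 10 min at room temperature. RETS1 substrate added; fluorescence read kinetically for 30 min (ex 335/em 495 nm). IC50 converted to Ki using Km 2.03 μM (E. coli) or 1.74 μM (baculovirus).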

[3] = Hepatitis C virus, Huh-7, GS4.3 cells, 72 h incubation, NPTII ELISA
[4] = recombinant full-length NS3/NS4A-2, RETS1 substrate, kinetic fluorescence read, read-out: NS3-NS4 IC50
[5] = GS4.3 cells, 72 h incubation, NPTII ELISA

## CC[C@@H]1C[C@]1(NC(=O)[C@@H]1C[C@@H](OC(=O)N2Cc3cccc(F)c3C2)CN1C(=O)[C@@H](Nc1cccc(C(C)(C)C#N)c1)C(C)C)C(=O)NS(=O)(=O)C1CC1 [Compound 53, [(3R,5S)-1-((S)-2-(3-(2-cyanopropan-2-yl)phenylamino)-3-methylbutanoyl)-5-((1R,2R)-1-(cyclopropylsulfonylcarbamoyl)-2-ethylcyclopropylcarbamoyl)-pyrrolidin-3-yl]4-fluoroisoindoline-2-carboxylate]
[1]; [3]
  EC50: < 0.1 µM
[2]; [4]
  IC50: < 0.1 µM

## CC[C@@H]1C[C@]1(NC(=O)[C@@H]1C[C@@H](OC(=O)N2Cc3cccc(Cl)c3C2)CN1C(=O)[C@@H](Nc1cccc(C(C)(C)C#N)c1)C(C)C)C(=O)NS(=O)(=O)C1CC1 [Compound 54, [(3R,5S)-1-((S)-2-(3-(2-cyanopropan-2-yl)phenylamino)-3-methylbutanoyl)-5-((1R,2R)-1-(cyclopropylsulfonylcarbamoyl)-2-ethylcyclopropylcarbamoyl)-pyrrolidin-3-yl]4-chloroisoindoline-2-carboxylate]
[1]; [3]
  EC50: < 0.1 µM
[2]; [4]
  IC50: < 0.1 µM

## CC[C@@H]1C[C@]1(NC(=O)[C@@H]1C[C@@H](OC(=O)N2Cc3cccc(F)c3C2)CN1C(=O)[C@@H](Nc1cccc(C(F)(F)F)c1)C(C)(C)C)C(=O)NS(=O)(=O)C1CC1 [Compound 56, [(3R,5S)-5-((1R,2R)-1-(cyclopropylsulfonylcarbamoyl)-2-ethylcyclopropylcarbamoyl)-1-((S)-3,3-dimethyl-2-(3-(trifluoromethyl)phenylamino)butanoyl)pyrrolidin-3-yl]4-fluoroisoindoline-2-carboxylate]
[1]; [3]
  EC50: < 0.1 µM
[2]; [4]
  IC50: < 0.1 µM

## CC[C@@H]1C[C@]1(NC(=O)[C@@H]1C[C@@H](OC(=O)N2Cc3cccc(F)c3C2)CN1C(=O)[C@@H](Nc1cncc(C(F)(F)F)c1)C(C)(C)C)C(=O)NS(=O)(=O)C1CC1 [Compound 57, [(3R,5S)-5-((1R,2R)-1-(cyclopropylsulfonylcarbamoyl)-2-ethylcyclopropylcarbamoyl)-1-((S)-3,3-dimethyl-2-(5-(trifluoromethyl)pyridin-3-ylamino)butanoyl)pyrrolidin-3-yl]4-fluoroisoindoline-2-carboxylate]
[1]; [3]
  EC50: < 0.1 µM
[2]; [4]
  IC50: < 0.1 µM

## CC[C@@H]1C[C@]1(NC(=O)[C@@H]1C[C@@H](OC(=O)N2Cc3cccc(Cl)c3C2)CN1C(=O)[C@@H](Nc1cncc(C(F)(F)F)c1)C(C)(C)C)C(=O)NS(=O)(=O)C1CC1 [Compound 58, [(3R,5S)-5-((1R,2R)-1-(cyclopropylsulfonylcarbamoyl)-2-ethylcyclopropylcarbamoyl)-1-((S)-3,3-dimethyl-2-(5-(trifluoromethyl)pyridin-3-ylamino)butanoyl)pyrrolidin-3-yl]4-chloroisoindoline-2-carboxylate]
[1]; [3]
  EC50: < 0.1 µM
[2]; [4]
  IC50: < 0.1 µM

## CC(C)[C@H](Nc1cccc(C(C)(C)C)c1)C(=O)N1C[C@H](OC(=O)N2Cc3cccc(Cl)c3C2)C[C@H]1C(=O)N[C@]1(C(=O)NS(=O)(=O)C2CC2)C[C@H]1C1CC1 [Compound 59, [(3R,5S)-1-((S)-2-(3-tert-butylphenylamino)-3-methylbutanoyl)-5-((1R,2S)-1-(cyclopropylsulfonylcarbamoyl)-2-cyclopropylcyclopropylcarbamoyl)pyrrolidin-3-yl]4-chloroisoindoline-2-carboxylate]
[1]; [3]
  EC50: < 0.1 µM
[2]; [4]
  IC50: < 0.1 µM

## CC(C)(C)[C@H](Nc1cccc(C(F)(F)F)c1)C(=O)N1C[C@H](OC(=O)N2Cc3cccc(Cl)c3C2)C[C@H]1C(=O)N[C@]1(C(=O)NS(=O)(=O)C2CC2)C[C@H]1C1CC1 [Compound 60, [(3R,5S)-5-((1R,2S)-1-(cyclopropylsulfonylcarbamoyl)-2-cyclopropylcyclopropylcarbamoyl)-1-((S)-3,3-dimethyl-2-(3-(trifluoromethyl)phenylamino)-butanoyl)pyrrolidin-3-yl]4-chloroisoindoline-2-carboxylate]
[1]; [3]
  EC50: < 0.1 µM
[2]; [4]
  IC50: < 0.1 µM

## C=C[C@@H]1C[C@]1(NC(=O)[C@@H]1C[C@@H](OC(=O)N2Cc3cccc(Cl)c3C2)CN1C(=O)[C@@H](Nc1nc(-c2ccc(F)nc2)cs1)C1CCCCC1)C(=O)NS(=O)(=O)C1CC1 [Compound 61, [(3R,5S)-5-(((1R,2S)-1-(cyclopropylsulfonylcarbamoyl)-2-vinylcyclopropyl)carbamoyl)-1-((S)-2-cyclohexyl-2-(4-(6-fluoropyridin-3-yl)thiazol-2-ylamino)acetyl)pyrrolidin-3-yl]-4-chloroisoindoline-2-carboxylate]
[1]; [3]
  EC50: < 0.1 µM
[2]; [4]
  IC50: < 0.1 µM

## C=C[C@@H]1C[C@]1(NC(=O)[C@@H]1C[C@@H](OC(=O)N2Cc3cccc(Cl)c3C2)CN1C(=O)[C@@H](Nc1nc(C(F)(F)F)cs1)C1CCCCC1)C(=O)NS(=O)(=O)C1CC1 [Compound 63, [(3R,5S)-5-(((1R,2S)-1-(Cyclopropylsulfonylcarbamoyl)-2-vinylcyclopropyl)carbamoyl)-1-((S)-2-cyclohexyl-2-(4-(trifluoromethyl)thiazol-2-ylamino)acetyl)pyrrolidin-3-yl]4-chloroisoindoline-2-carboxylate]
[1]; [3]
  EC50: < 0.1 µM
[2]; [4]
  IC50: < 0.1 µM

## CC(C)(C)[C@H](Nc1cccc(C(F)(F)F)c1)C(=O)N1C[C@H]2[C@@H]([C@H]1C(=O)NC(CC1CCC1)C(=O)C(N)=O)C2(C)C (stereo partly shown) [Compound 68]
[1]; Hepatitis C virus, Huh-7, 72 h
  EC50: 10 to 50 µM
[2]
  IC50: 0.1 to 1 µM

## CC[C@@H]1C[C@]1(NC(=O)[C@@H]1C[C@@H](Oc2nc3ccccc3s2)CN1C(=O)[C@@H](Nc1cccc(C(F)(F)F)c1)C(C)(C)C)C(=O)NS(=O)(=O)C1CC1 [Compound 69]
[1]; [3]
  EC50: < 0.1 µM
[2]; [4]
  IC50: < 0.1 µM

## CC[C@@H]1C[C@]1(NC(=O)[C@@H]1C[C@@H](Oc2nc3ccccc3s2)CN1C(=O)[C@@H](Nc1cncc(C(F)(F)F)c1)C(C)(C)C)C(=O)NS(=O)(=O)C1CC1 [Compound 70]
[1]; [3]
  EC50: < 0.1 µM
[2]; [4]
  IC50: < 0.1 µM

## CC[C@@H]1C[C@]1(NC(=O)[C@@H]1C[C@@H](OC(=O)N2Cc3cccc(Cl)c3C2)CN1C(=O)[C@@H](Nc1cccc(C(F)(F)F)c1)C(C)(C)C)C(=O)NOC(C)(C)C [Compound 71]
[1]; [3]
  EC50: 0.1 to 1 µM
[2]; [4]
  IC50: 0.1 to 1 µM

## CC[C@@H]1C[C@]1(NC(=O)[C@@H]1C[C@@H](OC(=O)N2Cc3cccc(Cl)c3C2)CN1C(=O)[C@@H](Nc1cccc(C(F)(F)F)c1)C(C)(C)C)C(=O)NOCC1CC1 [Compound 72]
[1]; [3]
  EC50: 0.1 to 1 µM
[2]; [4]
  IC50: 0.1 to 1 µM

## CC[C@@H]1CC1(NC(=O)[C@@H]1C[C@@H](OC(=O)N2Cc3cccc(Cl)c3C2)CN1C(=O)[C@@H](Nc1cccnc1)C(C)(C)C)C(=O)NS(=O)(=O)C1CC1 (stereo partly shown) [Compound 74]
[1]; [3]
  EC50: < 0.1 µM
[2]; [4]
  IC50: < 0.1 µM

## CC[C@@H]1C[C@]1(NC(=O)[C@@H]1C[C@@H](OC(=O)N2Cc3cccc(Cl)c3C2)CN1C(=O)[C@@H](Nc1cccc(N2CCOCC2)c1)C(C)(C)C)C(=O)NS(=O)(=O)C1CC1 [Compound 75]
[1]; [3]
  EC50: < 0.1 µM
[2]; [4]
  IC50: < 0.1 µM

## CC[C@@H]1C[C@]1(NC(=O)[C@@H]1C[C@@H](OC(=O)N2Cc3cccc(Cl)c3C2)CN1C(=O)[C@@H](Nc1cccc(Oc2ccccc2)c1)C(C)(C)C)C(=O)NS(=O)(=O)C1CC1 [Compound 76]
[1]; [3]
  EC50: < 0.1 µM
[2]; [4]
  IC50: < 0.1 µM

## CC[C@@H]1C[C@]1(NC(=O)[C@@H]1C[C@@H](OC(=O)N2Cc3cccc(Cl)c3C2)CN1C(=O)[C@@H](Nc1cccc(C(F)(F)F)c1)C(C)(C)C)C(=O)NS(=O)(=O)C1(C)CC1 [Compound 81]
[1]; [3]
  EC50: < 0.1 µM
[2]
  IC50: < 0.1 µM

## [(3R,5S)-5-((1R,2R)-1-(cyclopropylsulfonylcarbamoyl)-2-ethylcyclopropylcarbamoyl)-1-((S)-3,3-dimethyl-2-(3-(trifluoromethyl)phenylamino)butanoyl)pyrrolidin-3-yl]4-chloroisoindoline-2-carboxylate [Compound 55]
[1]; [5]
  EC50: < 0.1 µM
[2]; [4]
  IC50: < 0.1 µM

## [(3R,5S)-5-(((1R,2R)-1-(Cyclopropylsulfonylcarbamoyl)-2-ethylcyclopropyl)carbamoyl)-1-((S)-2-(5-ethylthiazol-2-ylamino)-3,3-dimethylbutanoyl)pyrrolidin-3-yl]4-chloroisoindoline-2-carboxylate [Compound 66]
[1]; [5]
  EC50: < 0.1 µM
[2]; [4]
  IC50: < 0.1 µM

## [(3R,5S)-5-(((1R,2R)-1-(Cyclopropylsulfonylcarbamoyl)-2-ethylcyclopropyl)carbamoyl)-1-((S)-2-(5-isopropylthiazol-2-ylamino)-3-methylbutanoyl)pyrrolidin-3-yl]4-chloroisoindoline-2-carboxylate [Compound 67]
[1]; [5]
  EC50: < 0.1 µM
[2]; [4]
  IC50: < 0.1 µM

## [(3R,5S)-5-(((1R,2R)-1-(Cyclopropylsulfonylcarbamoyl)-2-ethylcyclopropyl)carbamoyl)-1-((S)-2-cyclohexyl-2-(5-ethylthiazol-2-ylamino)acetyl)pyrrolidin-3-yl]4-chloroisoindoline-2-carboxylate [Compound 64]
[1]; [5]
  EC50: < 0.1 µM
[2]; [4]
  IC50: < 0.1 µM

## [(3R,5S)-5-(((1R,2S)-1-(cyclopropylsulfonylcarbamoyl)-2-vinylcyclopropyl)carbamoyl)-1-((S)-2-cyclohexyl-2-(5-ethylthiazol-2-ylamino)acetyl)pyrrolidin-3-yl]4-chloroisoindoline-2-carboxylate [Compound 62]
[1]; [5]
  EC50: < 0.1 µM
[2]; [4]
  IC50: < 0.1 µM
